Assay results from patent US4418077A, “Fluorinated amino-butyric acid and diaminobutane derivatives” (Merrell Toraude et Compagnie, priority 1980, dated 1983).

Assays:
Assay type in all cases: in vivo
GABA-T = GABA-T activity in brain of mice after four daily i.p. doses; details: brain 24 hours after last dose
Method: (§1) A group of 10 male albino CD1 mice from Charles Riner, France, is given an i.p. injection of the test compound in aqueous solution daily for four consecutive days. Half of the animals are killed by decapitation 24 hours after the last dose fo the test compound. The other half of the animals are observed for up to 12 days for toxicity (as indicated by weight loss and deaths). Control animals receive an injection of the vehicle only.
(§2) The brains are removed from the dead mice and are divided into two portions by sagittal section. One half is used for the measurement of GABA-T activity while the other is used for measuring GABA content. The GABA-T activity is measured using known methods as described by M. Jung et al., J. Neurochem., 28, 717 (1977) and 29, 797 (1977), GABA content is measured by perchloric acid or trichloroacetic acid extracts using an amino acid analyzer equiped with a fluoresence detector.

brain GABA = assay: GABA content of brain of mice after four daily i.p. doses; details: brain 24 hours after last dose
Method: as §1, §2

[1] = Toxicity in mice (weight loss and deaths), observed up to 12 days; details: mouse, in vivo, ip, daily dose 1 mg/kg for 4 days, observed up to 12 days, read-out: Mortality (After Treatment)
Method: as §1

mice = assay: as above; details: i.p.
Method: as §1

[2] = daily dose 2.5 mg/kg for 4 days

NC(CF)C(F)C(=O)O (stereo not drawn) [2,4-difluoro-3-amino-butyric acid, 2,4-DIFLUORO-3-AMINO-BUTYRIC ACID]
GABA-T Inhibition (%) (GABA-T; daily dose 1 mg/kg for 4 days): 50% | GABA-T Inhibition (%) (GABA-T; [2]): 83% | GABA-T Inhibition (%) (GABA-T; daily dose 5 mg/kg for 4 days): 87% | GABA Elevation (%) (brain GABA; daily dose 1 mg/kg for 4 days): 150% | GABA Elevation (%) (brain GABA; [2]): 225% | GABA Elevation (%) (brain GABA; daily dose 5 mg/kg for 4 days): 250% | mortality at 288 h [1]: 0% | Weight Loss % (mice; daily dose 1 mg/kg for 4 days): 0% | Weight Loss % (mice; [2]): -5% | Mortality (After Treatment) (mice; daily dose 2.5 mg/kg for 4 days, deaths by day 6): 2/5 | Weight Loss % (mice; daily dose 5 mg/kg for 4 days): -25% | Mortality (After Treatment) (mice; daily dose 5 mg/kg for 4 days, deaths by day 7): 5/5
